# Results published in ChEMBL document CHEMBL3596180, “Evaluation of histone deacetylase inhibitors (HDACi) as therapeutic leads for human African trypanosomiasis (HAT)” (Bioorg Med Chem, 2015).
# pEC50, pKi: −log10 of the molar value.
# Legend:
# [1] = Tmax in iv dosed human measured under phase 1 trial; type: ADME, organism-based; details: in vivo
# [2] = Half-life in iv dosed human measured under phase 1 trial; type: ADME, organism-based; details: in vivo
# [3] = tested on: Trypanosoma brucei brucei; assay: Antitrypanosomal activity against Trypanosoma brucei brucei 427 assessed as inhibition of parasite proliferation measured as ATP levels after 48 hrs by luciferase-based assay; type: functional, organism-based; details: Trypanosoma brucei, 427, 48 h
# [4] = Cmax in iv dosed human measured under phase 1 trial; type: ADME, organism-based; parameters: route intravenous; details: in vivo
# [5] = AUC in iv dosed human measured under phase 1 trial; type: ADME, organism-based; details: in vivo
# [6] = target: T1, Protein deacetylase HDAC6 (Homo sapiens, UniProt Q9UBN7); assay: Inhibition of human HDAC6
# T1 sequence (Q9UBN7 whole entry): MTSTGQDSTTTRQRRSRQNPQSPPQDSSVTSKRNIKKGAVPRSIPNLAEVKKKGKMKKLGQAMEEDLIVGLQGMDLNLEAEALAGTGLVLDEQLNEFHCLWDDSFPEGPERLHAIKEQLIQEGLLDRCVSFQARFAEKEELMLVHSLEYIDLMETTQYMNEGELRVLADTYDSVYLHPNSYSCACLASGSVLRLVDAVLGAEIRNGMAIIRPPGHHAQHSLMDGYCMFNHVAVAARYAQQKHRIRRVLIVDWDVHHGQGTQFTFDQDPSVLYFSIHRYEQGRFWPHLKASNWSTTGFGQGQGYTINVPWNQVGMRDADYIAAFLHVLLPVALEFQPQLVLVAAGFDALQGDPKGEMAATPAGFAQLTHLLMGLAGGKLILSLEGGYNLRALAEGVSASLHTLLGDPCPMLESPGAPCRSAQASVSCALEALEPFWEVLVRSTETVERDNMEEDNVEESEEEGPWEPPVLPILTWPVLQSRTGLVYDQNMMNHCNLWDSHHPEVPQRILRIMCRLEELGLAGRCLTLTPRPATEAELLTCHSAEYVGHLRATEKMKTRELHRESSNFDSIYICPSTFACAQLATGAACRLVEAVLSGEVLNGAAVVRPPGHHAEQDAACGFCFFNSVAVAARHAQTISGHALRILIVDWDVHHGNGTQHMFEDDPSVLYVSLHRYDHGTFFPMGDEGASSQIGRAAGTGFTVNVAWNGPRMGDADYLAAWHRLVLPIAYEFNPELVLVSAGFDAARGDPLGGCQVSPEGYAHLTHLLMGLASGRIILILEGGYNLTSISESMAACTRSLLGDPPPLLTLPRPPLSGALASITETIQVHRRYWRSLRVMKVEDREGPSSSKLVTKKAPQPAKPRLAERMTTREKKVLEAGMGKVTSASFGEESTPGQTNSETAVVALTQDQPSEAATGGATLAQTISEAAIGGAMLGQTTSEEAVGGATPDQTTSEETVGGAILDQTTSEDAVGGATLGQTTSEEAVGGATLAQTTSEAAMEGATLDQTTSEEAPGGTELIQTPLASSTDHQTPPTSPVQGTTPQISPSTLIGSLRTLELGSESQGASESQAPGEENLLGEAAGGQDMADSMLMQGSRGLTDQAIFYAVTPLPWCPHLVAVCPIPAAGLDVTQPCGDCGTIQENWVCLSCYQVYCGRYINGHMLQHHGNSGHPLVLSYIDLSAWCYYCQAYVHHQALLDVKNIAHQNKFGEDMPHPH
# Histone deacetylase 3 = Histone deacetylase 3 (Homo sapiens, UniProt O15379); assay: Inhibition of human HDAC3
# Histone deacetylase 4 = Histone deacetylase 4 (Homo sapiens, UniProt P56524); assay: Inhibition of human HDAC4
# Histone deacetylase 1 = Histone deacetylase 1 (Homo sapiens, UniProt Q13547); assay: Inhibition of human HDAC1
# Histone deacetylase 5 = Histone deacetylase 5 (Homo sapiens, UniProt Q9UQL6); assay: Inhibition of human HDAC5
# Histone deacetylase 2 = Histone deacetylase 2 (Homo sapiens, UniProt Q92769); assay: Inhibition of human HDAC2
# Histone deacetylase 7 = target: T2, Histone deacetylase 7 (Homo sapiens, UniProt Q8WUI4); assay: Inhibition of human HDAC7
# T2 sequence (Q8WUI4 whole entry): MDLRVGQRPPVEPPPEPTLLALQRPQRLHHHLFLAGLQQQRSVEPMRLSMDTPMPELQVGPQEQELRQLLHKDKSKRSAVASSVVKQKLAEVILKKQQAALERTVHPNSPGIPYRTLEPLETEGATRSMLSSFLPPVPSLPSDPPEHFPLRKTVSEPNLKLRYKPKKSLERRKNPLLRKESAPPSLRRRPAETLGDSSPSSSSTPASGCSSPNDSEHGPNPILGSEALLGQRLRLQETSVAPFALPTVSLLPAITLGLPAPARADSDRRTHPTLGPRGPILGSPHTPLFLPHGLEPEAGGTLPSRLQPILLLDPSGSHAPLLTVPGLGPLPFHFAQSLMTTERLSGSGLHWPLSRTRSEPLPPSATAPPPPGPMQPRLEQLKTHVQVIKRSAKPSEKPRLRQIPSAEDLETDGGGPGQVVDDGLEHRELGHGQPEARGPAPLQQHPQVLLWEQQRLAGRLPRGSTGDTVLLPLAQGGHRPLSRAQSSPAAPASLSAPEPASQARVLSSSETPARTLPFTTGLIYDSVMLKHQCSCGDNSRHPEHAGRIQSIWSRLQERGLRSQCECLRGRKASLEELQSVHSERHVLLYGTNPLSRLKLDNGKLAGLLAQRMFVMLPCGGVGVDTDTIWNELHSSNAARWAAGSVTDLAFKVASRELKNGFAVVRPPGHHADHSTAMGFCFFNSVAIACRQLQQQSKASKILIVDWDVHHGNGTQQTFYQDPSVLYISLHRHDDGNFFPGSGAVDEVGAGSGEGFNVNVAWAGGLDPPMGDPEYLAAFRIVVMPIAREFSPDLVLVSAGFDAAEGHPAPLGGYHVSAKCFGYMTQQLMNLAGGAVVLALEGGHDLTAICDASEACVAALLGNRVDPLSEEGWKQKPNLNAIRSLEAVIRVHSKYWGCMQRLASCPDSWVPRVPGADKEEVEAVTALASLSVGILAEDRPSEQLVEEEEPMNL
# [7] = Tmax in po dosed human measured under phase 1 trial; type: ADME, organism-based; details: in vivo
# [8] = Cmax in po dosed human measured under phase 1 trial; type: ADME, organism-based; parameters: route oral; details: in vivo
# [9] = AUC in po dosed human measured under phase 1 trial; type: ADME, organism-based; details: in vivo
# [10] = Half-life in po dosed human measured under phase 1 trial; type: ADME, organism-based; details: in vivo
# Sequence of Histone deacetylase 1 (Q13547 whole entry): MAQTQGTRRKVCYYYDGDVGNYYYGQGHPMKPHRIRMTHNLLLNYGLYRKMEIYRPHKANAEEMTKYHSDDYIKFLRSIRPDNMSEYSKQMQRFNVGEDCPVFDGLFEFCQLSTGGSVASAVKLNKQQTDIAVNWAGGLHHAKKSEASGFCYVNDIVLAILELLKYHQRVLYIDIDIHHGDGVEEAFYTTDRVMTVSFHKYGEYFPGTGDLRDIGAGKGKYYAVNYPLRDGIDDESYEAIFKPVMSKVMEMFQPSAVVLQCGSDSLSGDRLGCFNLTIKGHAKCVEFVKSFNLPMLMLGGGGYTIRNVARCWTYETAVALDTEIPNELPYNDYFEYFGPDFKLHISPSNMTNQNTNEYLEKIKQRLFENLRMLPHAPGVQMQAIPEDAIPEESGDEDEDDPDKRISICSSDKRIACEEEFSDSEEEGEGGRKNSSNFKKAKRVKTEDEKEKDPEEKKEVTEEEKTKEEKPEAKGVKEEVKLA
# Sequence of Histone deacetylase 2 (Q92769 whole entry): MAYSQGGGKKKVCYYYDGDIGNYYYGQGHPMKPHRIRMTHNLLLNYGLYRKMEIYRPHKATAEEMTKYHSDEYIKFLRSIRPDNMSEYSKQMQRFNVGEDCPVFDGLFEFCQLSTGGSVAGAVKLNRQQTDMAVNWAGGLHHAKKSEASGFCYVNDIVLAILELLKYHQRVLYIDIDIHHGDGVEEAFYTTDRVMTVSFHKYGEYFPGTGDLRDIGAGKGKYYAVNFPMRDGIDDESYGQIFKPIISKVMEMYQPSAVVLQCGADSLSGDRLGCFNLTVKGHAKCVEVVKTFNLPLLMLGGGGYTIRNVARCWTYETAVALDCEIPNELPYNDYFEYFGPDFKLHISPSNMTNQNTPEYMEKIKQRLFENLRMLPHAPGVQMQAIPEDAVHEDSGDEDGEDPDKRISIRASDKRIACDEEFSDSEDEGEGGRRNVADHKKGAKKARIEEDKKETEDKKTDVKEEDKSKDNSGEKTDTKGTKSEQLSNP
# Sequence of Histone deacetylase 4 (P56524 whole entry): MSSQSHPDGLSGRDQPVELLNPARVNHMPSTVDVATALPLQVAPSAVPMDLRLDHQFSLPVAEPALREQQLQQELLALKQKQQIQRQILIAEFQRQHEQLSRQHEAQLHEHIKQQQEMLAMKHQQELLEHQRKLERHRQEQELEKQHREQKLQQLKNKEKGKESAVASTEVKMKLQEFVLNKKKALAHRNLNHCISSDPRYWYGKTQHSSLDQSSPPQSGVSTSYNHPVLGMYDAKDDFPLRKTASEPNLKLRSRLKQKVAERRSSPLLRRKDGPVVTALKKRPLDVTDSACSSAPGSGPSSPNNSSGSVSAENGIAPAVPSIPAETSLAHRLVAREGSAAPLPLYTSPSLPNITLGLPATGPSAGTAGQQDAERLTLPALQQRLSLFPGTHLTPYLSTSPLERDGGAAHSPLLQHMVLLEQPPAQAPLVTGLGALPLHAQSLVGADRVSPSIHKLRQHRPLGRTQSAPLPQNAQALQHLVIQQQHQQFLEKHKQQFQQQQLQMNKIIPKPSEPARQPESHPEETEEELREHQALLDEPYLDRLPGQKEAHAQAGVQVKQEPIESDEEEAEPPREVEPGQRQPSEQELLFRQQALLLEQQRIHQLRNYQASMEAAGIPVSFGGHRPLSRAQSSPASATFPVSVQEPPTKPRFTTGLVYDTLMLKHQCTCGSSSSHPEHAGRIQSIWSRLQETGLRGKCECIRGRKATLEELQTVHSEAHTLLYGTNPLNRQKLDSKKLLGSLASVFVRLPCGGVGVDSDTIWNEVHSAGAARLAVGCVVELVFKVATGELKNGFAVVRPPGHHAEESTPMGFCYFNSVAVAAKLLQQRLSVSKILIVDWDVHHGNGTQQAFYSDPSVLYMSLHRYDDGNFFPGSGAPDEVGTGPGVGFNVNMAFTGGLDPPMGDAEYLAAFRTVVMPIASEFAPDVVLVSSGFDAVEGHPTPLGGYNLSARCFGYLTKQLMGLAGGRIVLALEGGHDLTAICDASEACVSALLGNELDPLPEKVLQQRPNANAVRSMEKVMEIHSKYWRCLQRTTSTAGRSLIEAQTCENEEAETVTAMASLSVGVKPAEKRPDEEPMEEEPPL
# Sequence of Histone deacetylase 3 (O15379 whole entry): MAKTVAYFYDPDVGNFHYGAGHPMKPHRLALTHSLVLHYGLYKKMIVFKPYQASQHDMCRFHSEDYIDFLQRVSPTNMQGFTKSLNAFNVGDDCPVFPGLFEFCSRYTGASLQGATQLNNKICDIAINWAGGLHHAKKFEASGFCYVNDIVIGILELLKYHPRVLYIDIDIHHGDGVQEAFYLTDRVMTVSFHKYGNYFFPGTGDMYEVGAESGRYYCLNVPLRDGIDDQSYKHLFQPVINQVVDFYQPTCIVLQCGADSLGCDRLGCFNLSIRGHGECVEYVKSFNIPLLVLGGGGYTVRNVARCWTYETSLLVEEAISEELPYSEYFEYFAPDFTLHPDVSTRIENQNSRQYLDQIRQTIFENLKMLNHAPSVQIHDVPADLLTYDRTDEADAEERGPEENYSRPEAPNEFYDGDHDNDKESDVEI
# Sequence of Histone deacetylase 5 (Q9UQL6 whole entry): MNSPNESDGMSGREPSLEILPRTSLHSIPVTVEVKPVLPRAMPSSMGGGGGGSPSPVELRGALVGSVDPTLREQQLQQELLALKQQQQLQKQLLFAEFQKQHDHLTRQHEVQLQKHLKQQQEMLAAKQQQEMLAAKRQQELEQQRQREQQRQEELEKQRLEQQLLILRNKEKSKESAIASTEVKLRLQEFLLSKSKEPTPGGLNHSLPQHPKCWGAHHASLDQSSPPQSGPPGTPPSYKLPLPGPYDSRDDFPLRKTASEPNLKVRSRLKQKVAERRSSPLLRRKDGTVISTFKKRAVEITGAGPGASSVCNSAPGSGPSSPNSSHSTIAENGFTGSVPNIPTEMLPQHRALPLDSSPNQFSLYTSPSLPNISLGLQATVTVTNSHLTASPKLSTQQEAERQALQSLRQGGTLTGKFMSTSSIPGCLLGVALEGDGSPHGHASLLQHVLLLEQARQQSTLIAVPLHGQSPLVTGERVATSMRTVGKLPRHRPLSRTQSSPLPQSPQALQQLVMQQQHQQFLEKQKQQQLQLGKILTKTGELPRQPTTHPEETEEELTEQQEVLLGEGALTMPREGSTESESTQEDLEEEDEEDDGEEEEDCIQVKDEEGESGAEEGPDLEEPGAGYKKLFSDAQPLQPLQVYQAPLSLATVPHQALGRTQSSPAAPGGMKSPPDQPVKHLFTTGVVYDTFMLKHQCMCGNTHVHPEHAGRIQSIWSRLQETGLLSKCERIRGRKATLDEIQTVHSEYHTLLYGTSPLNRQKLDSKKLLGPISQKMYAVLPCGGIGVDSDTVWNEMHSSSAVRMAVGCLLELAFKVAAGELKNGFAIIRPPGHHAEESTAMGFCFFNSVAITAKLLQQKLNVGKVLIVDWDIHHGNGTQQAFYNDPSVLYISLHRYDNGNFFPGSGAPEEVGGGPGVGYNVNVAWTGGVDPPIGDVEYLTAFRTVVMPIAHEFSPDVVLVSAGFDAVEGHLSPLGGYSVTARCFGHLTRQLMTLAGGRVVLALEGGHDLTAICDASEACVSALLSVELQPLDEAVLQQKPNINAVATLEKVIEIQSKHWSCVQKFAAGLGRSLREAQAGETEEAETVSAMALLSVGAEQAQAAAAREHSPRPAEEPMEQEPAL
structure (smiles),measurement,setting,value
O=C(/C=C/c1ccc(CN(CCO)CCc2c[nH]c3ccccc23)cc1)NO [DACINOSTAT],Tmax,[1],2 h
same,half-life,[2],8.29 h
same,pEC50,[3],5.58
same,Cmax,[4],2170 nM
same,AUC,[5],2310 ng·h/mL
O=C(/C=C\c1cccc(C(=O)NO)c1)NO,pEC50,[3],5.15
CC(C)(CCc1ccccc1)C(=O)Nc1ccc(C(=O)NO)cc1,pEC50,[3],5.18
O=C(/C=C/C#Cc1cccc(NS(=O)(=O)c2ccccc2)c1)NO [OXAMFLATIN],pKi,[6],6.87
same,pKi,Histone deacetylase 3,8.57
same,pKi,Histone deacetylase 4,5.69
same,pKi,Histone deacetylase 1,8.89
O=C(CCCCCCC(=O)Nc1ccc([C@H]2O[C@@H](CSc3nc(-c4ccccc4)c(-c4ccccc4)o3)C[C@@H](c3ccc(CO)cc3)O2)cc1)NO [TUBACIN],pKi,Histone deacetylase 5,5.72
same,pKi,Histone deacetylase 2,5.93
same,pKi,Histone deacetylase 1,6.49
same,pKi,Histone deacetylase 7,5.27
same,pEC50,[3],5.47
CCN(CC)Cc1ccc2cc(COC(=O)Nc3ccc(C(=O)NO)cc3)ccc2c1 [GIVINOSTAT],Tmax,[7],2.1 h
same,Cmax,[8],208 nM
same,pEC50,[3],4.96
same,AUC,[9],671 ng·h/mL
same,half-life,[10],6 h
O=C(/C=C/C#Cc1ccc(NS(=O)(=O)c2ccccc2)cc1)NO [OXAMFLATIN],pEC50,[3],5.39
CN(C)Cc1c(C(=O)NCCOc2ccc(C(=O)NO)cc2)oc2ccccc12 [ABEXINOSTAT],pEC50,[3],5.07
